Assay results: ChEMBL document CHEMBL1152010, “Synthesis of new amide-linked N-hydroxyurea 5-lipoxygenase inhibitors by an intramolecular oxygen to nitrogen acyl transfer” (Bioorg Med Chem Lett, 1993)

Experiments:
Homo sapiens = species on record: Homo sapiens; experiment: Tested for the inhibition of leukotriene biosynthesis in human whole blood; format: functional
[1] = Half life after oral dosing in rats; format: ADME, organism-based; conditions: rat, in vivo

IC50 (Homo sapiens) [nM] | half-life [1] [h] | Structure (SMILES)
230 | 3.6 | NC(=O)N(O)CCNC(=O)c1cccc(Oc2ccccc2)c1
90 | 1.5 | NC(=O)N(O)C/C=C/c1cccc(Oc2ccccc2)c1
